{"source": "patent US11198710B2", "about": "“Transgenic plant having herbicide resistance” (priority 2016, dated 2021)", "key": {"[1]": {"tested_on": "wild-type rapeseed plants (variety: Westar)", "experiment": "Rapeseed sensitivity test 2 (agar medium), wild type", "assay_type": "in vivo, Brassica napus", "conditions": "0.1 μM pyroxasulfone, 22° C., 2 weeks", "text": "(§1) In order to investigate the extent of pyroxasulfone resistance of the transgenic rapeseed plants comprising the […] gene introduced therein compared to wild-type plants, the growth of rapeseed was examined in an agar medium containing pyroxasulfone. Wild-type rapeseed plants (variety: Westar) and transgenic rapeseed plants comprising the TaQ8GTC0 gene introduced therein were subjected to the growth inhibitory test in an agar medium, so as to examine the resistance thereof to pyroxasulfone.\n(§2) The medium (1 liter) used in the test was composed of 1× Murashige-Skoog (MS) media (a bag), thiamin hydrochloride (3 μg/ml), nicotinic acid (5 μg/ml), pyridoxin hydrochloride (0.5 μg/ml), and 1% (w/v) sucrose. The composition was added to a 1-liter beaker, a pH was adjusted to 5.7, and the volume of the composition was adjusted to 1 liter, followed by the addition of 8 g (0.8%) of agar. Thereafter, the composition was autoclaved, the temperature was cooled to room temperature, and pyroxasulfone (acetone solution) at a given concentration was added. […]\n(§3) The sensitivity of rapeseed was examined in agar media comprising pyroxasulfone (0.1 μM, 1 μM, 10 μM, and 100 μM). […] Values in the table in FIGS. 41 and 42 are expressed as the mean±standard deviation (n=4 to 5). Values in FIG. 43 are expressed as the means (n=4 to 5)."}, "TaQ8GTC0 protein": {"tested_on": "TaQ8GTC0 protein", "experiment": "Glutathione conjugation activity of the TaQ8GTC0 protein to VLCFAE-inhibiting herbicides (HPLC)", "assay_type": "biochemical, wheat (Triticum aestivum)", "description": "All the VLCFAE-inhibiting herbicides used in this example were added to the reaction mixture as acetone solutions. Conjugation reactions to the VLCFAE-inhibiting herbicides were performed in a reaction mixture (total amount: 200 μl) containing 50 μl of 100 mM potassium phosphate buffer (pH 6.8), 10 μl of 1 mM VLCFAE-inhibiting herbicide, 20 μl of 10 mM reduced glutathione (pH 7.0), 6 μl of the TaQ8GTC0 protein (378 ng in total, PBS buffer solution) and 114 μl of PBS buffer, the reaction was conducted at 30° C. for 15 minutes, the reaction product was filtered through a […], and 50 μl of the filtered solution was injected into HPLC. HPLC analysis conditions were as described below.\nApparatus: Agilent 1100 series\nColumn: CAPCELL PAK C18 AQ 4.6 mm (i.d.)×250 mm (SHISEIDO)\nMobile phase: acetonitrile/distilled water=5/95 (hold for 5 min)→(4 min)→40/60 (hold for 4 min)→(4 min)→90/10 (hold for 8 min)→(1 min)→5/95 (hold for 4 min) (each solvent containing 0.5% acetic acid)\nWhen the activity of glutathione conjugation to VLCFAE-inhibiting herbicides was analyzed, the amount of glutathione conjugates (GS conjugates) produced was determined based on the amount of VLCFAE-inhibiting herbicides decreased in the reaction solution.\nIn Example 1, the conjugation activity to cafenstrole was determined via quantification of the compound released by the glutathione conjugation of this herbicide. In addition, peaks of GS conjugate of other herbicides (i.e., metolachlor, alachlor, flufenacet, mefenacet, phentolazamide, indanofan, anilofos, and piperophos) were unknown. When analyzing the glutathione conjugation activities to these herbicides, accordingly, glutathione conjugation reactions were performed to produce GS conjugate in the modified conditions (i.e., more amount of enzyme was added or the conjugation reaction was conducted for longer time) in the beginning to produce glutathione conjugates (GS conjugates), and the peaks were identified with LC/MS."}, "[2]": {"tested_on": "wild-type rapeseed plants (variety: Westar)", "experiment": "Rapeseed sensitivity test 1 (post-sowing/pre-emergence soil treatment), wild type", "assay_type": "in vivo, Brassica napus", "description": "Wild-type rapeseed plants (variety: Westar) and transgenic rapeseed plants comprising the wheat GST gene introduced therein were subjected to Rapeseed sensitivity test 1 in plastic pots (length: 8 cm; width: 8 cm; height: 6 cm). The test was carried out in Fujino soil (sandy loam soil), and 4 seeds of wild-type rapeseed and 8 seeds of transgenic rapeseed were sown in each pot (sowing depth: 1 cm). Water dispersible granules containing 50% pyroxasulfone were applied at 5 different doses of 1, 4, 16, 63, and 250 g a.i./ha (n=3). Immediately after pyroxasulfone treatment, about 1 mm of rain was fallen with the use of artificial rainfall device, and water was supplied from the bottom of the pots. Thereafter, water was supplied from the bottom of the pot when the soil surface was dried in the pot, according to need.\nThe difference in the sensitivity of rapeseed to pyroxasulfone applied pre-emergence was examined (temperature: 22° C., fluorescent light), and whether or not the transgenic rapeseed plant comprising wheat GST had pyroxasulfone resistance was evaluated in terms of the plant height, the herbicidal symptoms, and the cotyledon growth. Specifically, heights of the plants were measured 2 weeks after seeds sowing of rapeseed and pyroxasulfone application, and the inhibition was assessed by comparison to control plants grown in the absence of pyroxauslfone (n=4 to 12). In FIGS. 37 to 39, “TaGST” stands for a transgenic rapeseed plant comprising the TaQ8GTC0 gene. Values in the table in FIG. 38 are expressed as the mean±standard deviation (n=4 to 12)."}, "[3]": {"tested_on": "transgenic rapeseed plants comprising the TaQ8GTC0 gene", "experiment": "Rapeseed sensitivity test 2 (agar medium), transgenic", "assay_type": "in vivo, Brassica napus", "conditions": "10 μM pyroxasulfone, 22° C., 2 weeks", "text": "as §1, §2, §3"}}}
{"smiles": "Cn1nc(C(F)(F)F)c(CS(=O)(=O)C2=NOC(C)(C)C2)c1OC(F)F", "note": "[Pyroxasulfone, 3-[5-(difluoromethoxy)-1-methyl-3-(trifluoromethyl)pyrazol-4-ylmethylsulfonyl]-4,5-dihydro-5,5-dimethyl-1,2-oxazole]", "values": [{"measurement": "inhibition ratio on foliage leaf development", "setting": "[1]", "value": "8.4±1.4", "unit": "%"}, {"measurement": "inhibition ratio on plant height", "setting": "[1]", "value": "8.9±2.8", "unit": "%"}, {"measurement": "Enzyme activity (glutathione conjugation)", "setting": "TaQ8GTC0 protein; 378 ng TaQ8GTC0 protein, 10 μl of 1 mM herbicide in 200 μl, 30° C., 15 minutes, mean ± standard deviation", "value": "11.7 ± 3.7", "unit": "μmol/mg protein/15 min"}, {"measurement": "GS conjugate of pyroxasulfone (M-15) produced", "setting": "TaQ8GTC0 protein; out of 10 nmol pyroxasulfone added to the reaction mixture", "value": 4.81, "unit": "nmol"}, {"measurement": "inhibition at 16 g/ha", "setting": "[2]; Brassica napus, 336 h, 16 g a.i./ha, 2 weeks after sowing and application, 22° C., read-out: shoot growth inhibition (plant height)", "value": 61.9, "unit": "%"}, {"measurement": "dose at which cotyledon growth was substantially completely inhibited", "setting": "[2]; pre-emergence soil treatment", "value": "≥ 16", "unit": "g a.i./ha"}, {"measurement": "dose at which cotyledons became dark green (herbicidal symptoms)", "setting": "[2]; pre-emergence soil treatment", "value": "≥ 16", "unit": "g a.i./ha"}, {"measurement": "inhibition ratio on foliage leaf development", "setting": "[3]", "value": "1.2±2.7", "unit": "%"}, {"measurement": "inhibition ratio on plant height", "setting": "[3]", "value": "7.8±5.9", "unit": "%"}]}
